The target of one test is T1, BTK (Homo sapiens, UniProt Q06187).
T1 construct: purchased Upstate 14-552
In words: In vitro BTK kinase assay: BTK-POLYGAT-LS assay. Format: biochemical. Particulars: 10 uM ATP, read-out: IC50 (10 uMATP).

The target of the next test is T2, pBTK (Homo sapiens, UniProt Q06187).
T2 construct: Heparinized venous blood was purchased from Bioreclamation, Inc. or SeraCare Life Sciences; tissue Bioreclamation, Inc. or SeraCare Life Sciences; host or cells: heparinized venous whole blood
In words: In vitro PD assay in whole blood (pBTK assay). The following applies: 30 min at 37° C. It is filed as cell-based. As to the method:
Heparinized venous blood was purchased from Bioreclamation, Inc. or SeraCare Life Sciences and shipped overnight. Whole blood was aliquoted into 96-well plate and “spiked” with serial dilutions of test compound in DMSO or with DMSO without drug. The final concentration of DMSO in all wells was 0.1%. The plate was incubated at 37° C. for 30 min. Lysis buffer containing protease and phosphatase inhibitors was added to the drug-containing samples and one of the DMSO-only samples (+PPi, high control), while lysis buffer containing protease inhibitors was added to the other DMSO-only samples (−PPi, low control). All of the lysed whole blood samples were subjected to the total BTK capture and phosphotyrosine detection method described in Example 30. ECL values were graphed in Prism and a best-fit curve with restrictions on the maximum and minimum defined by the +PPi high and −PPi low controls was used to estimate the test compound concentration that results in 50% inhibition of ECL signal by interpolation.
In some instances where a compound tested has activity “D”, other structurally similar compounds beyond the measurable limits of the assay are not included in Table 2.

T1 sequence (Q06187 whole entry): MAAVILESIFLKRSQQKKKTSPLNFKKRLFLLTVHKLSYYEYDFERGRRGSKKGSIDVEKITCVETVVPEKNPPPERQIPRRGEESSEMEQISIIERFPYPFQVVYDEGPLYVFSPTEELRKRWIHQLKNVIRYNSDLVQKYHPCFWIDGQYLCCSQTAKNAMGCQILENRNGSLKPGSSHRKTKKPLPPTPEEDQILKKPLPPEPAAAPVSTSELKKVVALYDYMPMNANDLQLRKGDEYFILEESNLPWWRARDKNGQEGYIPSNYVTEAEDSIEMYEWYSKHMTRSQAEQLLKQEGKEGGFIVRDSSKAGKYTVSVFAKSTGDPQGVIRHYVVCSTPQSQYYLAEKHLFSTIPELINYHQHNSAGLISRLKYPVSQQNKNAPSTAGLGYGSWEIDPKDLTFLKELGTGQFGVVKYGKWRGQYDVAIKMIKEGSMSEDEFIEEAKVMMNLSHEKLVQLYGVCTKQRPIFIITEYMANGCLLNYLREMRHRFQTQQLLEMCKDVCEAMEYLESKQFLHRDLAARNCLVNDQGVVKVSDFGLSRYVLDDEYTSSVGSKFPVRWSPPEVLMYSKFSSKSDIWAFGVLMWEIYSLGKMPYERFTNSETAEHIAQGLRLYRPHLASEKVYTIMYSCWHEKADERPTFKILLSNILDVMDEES
T2 sequence (Q06187 whole entry): as above

Broadly, the IC50 is the concentration that gives 50% inhibition. In the case of `CC(C)(C)c1csc(C(=O)NC2CCCc3cc(-c4ncnc5[nH]ncc45)ccc32)n1` (stereo in doubt) [Example I-100, (R)—N-(6-(1H-pyrazolo[3,4-d]pyrimidin-4-yl)-1,2,3,4-tetrahydronaphthalen-1-yl)-4-(tert-butyl)thiazole-2-carboxamide], the half-maximal inhibitory concentration (IC50) at BTK was below 10 nM; against pBTK it was 1500 to 10000 nM.
On the same counts, the results for `Cc1cc(-c2ncnc3[nH]ccc23)ccc1CNC(=O)c1ccc(C(C)(C)C)cn1` [Example I-1, 5-(tert-butyl)-N-(2-methyl-4-(7H-pyrrolo[2,3-d]pyrimidin-4-yl)benzyl)picolinamide] are below 10 nM and 1500 to 10000 nM.
Consider `Cc1cc(-c2ncnc3[nH]ccc23)ccc1CNC(=O)c1ccc(C(C)(C)C)cc1` [Example I-2, 4-(tert-butyl)-N-(2-methyl-4-(7H-pyrrolo[2,3-d]pyrimidin-4-yl)benzyl)benzamide], for which the half-maximal inhibitory concentration (IC50) was below 10 nM on BTK and 1500 to 10000 nM against pBTK.
Regarding `O=C(NC1CCCc2cc(-c3ncnc4[nH]ccc34)ccc21)c1cc2c(s1)CCCC2` (centres unmarked) [Example I-16, N-(6-(7H-pyrrolo[2,3-d]pyrimidin-4-yl)-1,2,3,4-tetrahydronaphthalen-1-yl)-4,5,6,7-tetrahydrobenzo[b]thiophene-2-carboxamide], the results for the IC50 at BTK and against pBTK were 10 to 99 nM and 1500 to 10000 nM, respectively.
On the same counts, the results for `Cc1cc(-c2ncnc3cc(C4=CCN(C(=O)N(C)C)CC4)[nH]c23)ccc1CNC(=O)c1ncc(C(C)(C)C)s1` [Example I-18, 5-(tert-butyl)-N-(4-(6-(1-(dimethylcarbamoyl)-1,2,3,6-tetrahydropyridin-4-yl)-5H-pyrrolo[3,2-d]pyrimidin-4-yl)-2-methylbenzyl)thiazole-2-carboxamide] are below 10 nM and below 500 nM.
On the same counts, the results for `Cc1cc(-c2ncnc3[nH]c(C4=CCN(C(=O)N(C)C)CC4)cc23)ccc1CNC(=O)c1cnc(C(C)(C)C)s1` [Example I-19, 2-(tert-butyl)-N-(4-(6-(1-(dimethylcarbamoyl)-1,2,3,6-tetrahydropyridin-4-yl)-7H-pyrrolo[2,3-d]pyrimidin-4-yl)-2-methylbenzyl)thiazole-5-carboxamide] are below 10 nM and below 500 nM.
For `Cc1cc(-c2ncnc3[nH]c(-c4ccc(C(=O)N5CCOCC5)cc4)cc23)ccc1CNC(=O)c1cnc(C(C)(C)C)s1` [Example I-20] the same measures were below 10 nM and below 500 nM.
`Cc1cc(-c2ncnc3[nH]c(C4=CCS(=O)(=O)CC4)cc23)ccc1CNC(=O)c1cnc(C(C)(C)C)s1` [Example I-21, 2-(tert-butyl)-N-(4-(6-(1,1-dioxido-3,6-dihydro-2H-thiopyran-4-yl)-7H-pyrrolo[2,3-d]pyrimidin-4-yl)-2-methylbenzyl)thiazole-5-carboxamide]: the IC50 was below 10 nM on BTK and below 500 nM on pBTK.
Regarding `Cc1cc(-c2ncnc3cc(C4=CCS(=O)(=O)CC4)[nH]c23)ccc1CNC(=O)c1cnc(C(C)(C)C)s1` [Example I-22, 2-(tert-butyl)-N-(4-(6-(1,1-dioxido-3,6-dihydro-2H-thiopyran-4-yl)-5H-pyrrolo[3,2-d]pyrimidin-4-yl)-2-methylbenzyl)thiazole-5-carboxamide], the IC50 at BTK was below 10 nM; against pBTK, below 500 nM.
As to `Cc1cc(-c2ncnc3cc(C4CCN(C)CC4)[nH]c23)ccc1CNC(=O)c1cnc(C(C)(C)C)s1` [Example I-25, 2-(tert-butyl)-N-(2-methyl-4-(6-(1-methylpiperidin-4-yl)-5H-pyrrolo[3,2-d]pyrimidin-4-yl)benzyl)thiazole-5-carboxamide], the half-maximal inhibitory concentration (IC50) at BTK was below 10 nM; on pBTK, 500 to 1500 nM.
Regarding `Cc1cc(-c2ncnc3[nH]c(-c4cnn(C)c4)cc23)ccc1CNC(=O)c1cnc(C(C)(C)C)s1` [Example I-26, 2-(tert-butyl)-N-(2-methyl-4-(6-(1-methyl-1H-pyrazol-4-yl)-7H-pyrrolo[2,3-d]pyrimidin-4-yl)benzyl)thiazole-5-carboxamide], the IC50 at BTK is below 10 nM; against pBTK, below 500 nM.
With `CC(C)(C)c1ncc(C(=O)NC(CO)c2ccc(-c3ncnc4[nH]c(C5=CCS(=O)(=O)CC5)cc34)cc2)s1` (centres unmarked) [Example I-30, 2-(tert-butyl)-N-(1-(4-(6-(1,1-dioxido-3,6-dihydro-2H-thiopyran-4-yl)-7H-pyrrolo[2,3-d]pyrimidin-4-yl)phenyl)-2-hydroxyethyl)thiazole-5-carboxamide], the IC50 at BTK is below 10 nM; on pBTK, 1500 to 10000 nM.
`Cc1cc(-c2ncnc3[nH]c(-c4cnn(C)c4)cc23)ccc1C(CO)NC(=O)c1cnc(C(C)(C)C)s1` (centres unmarked) [Example I-31, 2-(tert-butyl)-N-(2-hydroxy-1-(2-methyl-4-(6-(1-methyl-1H-pyrazol-4-yl)-7H-pyrrolo[2,3-d]pyrimidin-4-yl)phenyl)ethyl)thiazole-5-carboxamide]: the half-maximal inhibitory concentration (IC50) is below 10 nM at BTK and 500 to 1500 nM against pBTK.
In the case of `Cc1cc(-c2ncnc3[nH]c(-c4cnn(C)c4)cc23)ccc1C(CO)NC(=O)c1cc2c(s1)CCOC2` (centres unmarked) [Example I-32, N-(2-hydroxy-1-(2-methyl-4-(6-(1-methyl-1H-pyrazol-4-yl)-7H-pyrrolo[2,3-d]pyrimidin-4-yl)phenyl)ethyl)-6,7-dihydro-4H-thieno[3,2-c]pyran-2-carboxamide], the results for the IC50 on BTK and on pBTK were below 10 nM and below 500 nM, respectively.
On the same counts, the results for `Cn1cc(-c2cc3c(-c4ccc5c(c4)CCCC5NC(=O)c4cnc(C(C)(C)C)s4)ncnc3[nH]2)cn1` (centres unmarked) [Example I-34, 2-(tert-butyl)-N-(6-(6-(1-methyl-1H-pyrazol-4-yl)-7H-pyrrolo[2,3-d]pyrimidin-4-yl)-1,2,3,4-tetrahydronaphthalen-1-yl)thiazole-5-carboxamide] are below 10 nM and below 500 nM.
On the same counts, the results for `Cn1cc(-c2cc3c(-c4ccc5c(c4)CCCC5NC(=O)c4cc5c(s4)CCOC5)ncnc3[nH]2)cn1` (centres unmarked) [Example I-35, N-(6-(6-(1-methyl-1H-pyrazol-4-yl)-7H-pyrrolo[2,3-d]pyrimidin-4-yl)-1,2,3,4-tetrahydronaphthalen-1-yl)-6,7-dihydro-4H-thieno[3,2-c]pyran-2-carboxamide] are below 10 nM and 500 to 1500 nM.
For `Cc1cc(-c2ncnc3cc(-c4cnn(C)c4)[nH]c23)ccc1CNC(=O)c1ncc(C(C)(C)C)s1` [Example I-36] the same measures were below 10 nM and below 500 nM.
On to `Cc1cc(-c2ncnc3cc(-c4cn(C)nc4C)[nH]c23)ccc1CNC(=O)c1cnc(C(C)(C)C)s1` [Example I-39, 2-(tert-butyl)-N-(4-(6-(1,3-dimethyl-1H-pyrazol-4-yl)-5H-pyrrolo[3,2-d]pyrimidin-4-yl)-2-methylbenzyl)thiazole-5-carboxamide], for which the half-inhibitory concentration (IC50) at BTK is below 10 nM; against pBTK, below 500 nM.
Regarding `CCn1cc(-c2cc3ncnc(-c4ccc(CNC(=O)c5ncc(C(C)(C)C)s5)c(C)c4)c3[nH]2)cn1` [Example I-40, 5-(tert-butyl)-N-(4-(6-(1-ethyl-1H-pyrazol-4-yl)-5H-pyrrolo[3,2-d]pyrimidin-4-yl)-2-methylbenzyl)thiazole-2-carboxamide], the IC50 at BTK was below 10 nM; on pBTK, below 500 nM.
With `Cc1cc(-c2ncnc3cc(-c4cn[nH]c4)[nH]c23)ccc1CNC(=O)c1ncc(C(C)(C)C)s1` [Example I-41, N-(4-(6-(1H-pyrazol-4-yl)-5H-pyrrolo[3,2-d]pyrimidin-4-yl)-2-methylbenzyl)-5-(tert-butyl)thiazole-2-carboxamide], the IC50 at BTK was below 10 nM; at pBTK, 500 to 1500 nM.
As for `Cc1cc(-c2ncnc3cc(-c4cnn(C)c4)[nH]c23)ccc1CNC(=O)c1cc2c(s1)CCOC2` [Example I-42, N-(2-methyl-4-(6-(1-methyl-1H-pyrazol-4-yl)-5H-pyrrolo[3,2-d]pyrimidin-4-yl)benzyl)-6,7-dihydro-4H-thieno[3,2-c]pyran-2-carboxamide], the values for the half-maximal inhibitory concentration (IC50) on BTK and at pBTK were below 10 nM and below 500 nM, respectively.
As to `Cc1cc(-c2ncnc3cc(-c4cnn(C)c4)[nH]c23)ccc1CNC(=O)N1CC(OC(C)C)C1` [Example I-43, 3-isopropoxy-N-(2-methyl-4-(6-(1-methyl-1H-pyrazol-4-yl)-5H-pyrrolo[3,2-d]pyrimidin-4-yl)benzyl)azetidine-1-carboxamide], the concentration for half-maximal inhibition (IC50) at BTK was below 10 nM; against pBTK, 500 to 1500 nM.
Consider `Cc1cc(-c2ncnc3cc(-c4cnn(C)c4)[nH]c23)ccc1C(CO)NC(=O)c1cnc(C(C)(C)C)s1` (centres unmarked) [Example I-44, 2-(tert-butyl)-N-(2-hydroxy-1-(2-methyl-4-(6-(1-methyl-1H-pyrazol-4-yl)-5H-pyrrolo[3,2-d]pyrimidin-4-yl)phenyl)ethyl)thiazole-5-carboxamide], for which the IC50 was below 10 nM on BTK and 500 to 1500 nM against pBTK.
Consider `Cn1cc(-c2cc3c(-c4ccc5c(c4)CCCCC5NC(=O)N4CC(OC(C)(C)C)C4)ncnc3[nH]2)cn1` (centres unmarked) [Example I-164, 3-(tert-butoxy)-N-(2-(6-(1-methyl-1H-pyrazol-4-yl)-7H-pyrrolo[2,3-d]pyrimidin-4-yl)-6,7,8,9-tetrahydro-5H-benzo[7]annulen-5-yl)azetidine-1-carboxamide], for which, at BTK, the IC50 was below 10 nM.

For the origin of these results see patent US10280169B2, “Biaryl bruton's tyrosine kinase inhibitors” (BIOGEN MA INC., priority 2013, dated 2019).
